Source: ChEMBL document CHEMBL4020786, “Discovery of pyrazolo[1,5-a]pyrimidine-3-carbonitrile derivatives as a new class of histone lysine demethylase 4D (KDM4D) inhibitors” (Bioorg Med Chem Lett, 2017)

Columns and labels:
[1] = biological target: T1, Lysine-specific demethylase 2B (Homo sapiens) (UniProt Q8NHM5); test: Inhibition of KDM2B (unknown origin) at 10 uM
T1 sequence (whole entry): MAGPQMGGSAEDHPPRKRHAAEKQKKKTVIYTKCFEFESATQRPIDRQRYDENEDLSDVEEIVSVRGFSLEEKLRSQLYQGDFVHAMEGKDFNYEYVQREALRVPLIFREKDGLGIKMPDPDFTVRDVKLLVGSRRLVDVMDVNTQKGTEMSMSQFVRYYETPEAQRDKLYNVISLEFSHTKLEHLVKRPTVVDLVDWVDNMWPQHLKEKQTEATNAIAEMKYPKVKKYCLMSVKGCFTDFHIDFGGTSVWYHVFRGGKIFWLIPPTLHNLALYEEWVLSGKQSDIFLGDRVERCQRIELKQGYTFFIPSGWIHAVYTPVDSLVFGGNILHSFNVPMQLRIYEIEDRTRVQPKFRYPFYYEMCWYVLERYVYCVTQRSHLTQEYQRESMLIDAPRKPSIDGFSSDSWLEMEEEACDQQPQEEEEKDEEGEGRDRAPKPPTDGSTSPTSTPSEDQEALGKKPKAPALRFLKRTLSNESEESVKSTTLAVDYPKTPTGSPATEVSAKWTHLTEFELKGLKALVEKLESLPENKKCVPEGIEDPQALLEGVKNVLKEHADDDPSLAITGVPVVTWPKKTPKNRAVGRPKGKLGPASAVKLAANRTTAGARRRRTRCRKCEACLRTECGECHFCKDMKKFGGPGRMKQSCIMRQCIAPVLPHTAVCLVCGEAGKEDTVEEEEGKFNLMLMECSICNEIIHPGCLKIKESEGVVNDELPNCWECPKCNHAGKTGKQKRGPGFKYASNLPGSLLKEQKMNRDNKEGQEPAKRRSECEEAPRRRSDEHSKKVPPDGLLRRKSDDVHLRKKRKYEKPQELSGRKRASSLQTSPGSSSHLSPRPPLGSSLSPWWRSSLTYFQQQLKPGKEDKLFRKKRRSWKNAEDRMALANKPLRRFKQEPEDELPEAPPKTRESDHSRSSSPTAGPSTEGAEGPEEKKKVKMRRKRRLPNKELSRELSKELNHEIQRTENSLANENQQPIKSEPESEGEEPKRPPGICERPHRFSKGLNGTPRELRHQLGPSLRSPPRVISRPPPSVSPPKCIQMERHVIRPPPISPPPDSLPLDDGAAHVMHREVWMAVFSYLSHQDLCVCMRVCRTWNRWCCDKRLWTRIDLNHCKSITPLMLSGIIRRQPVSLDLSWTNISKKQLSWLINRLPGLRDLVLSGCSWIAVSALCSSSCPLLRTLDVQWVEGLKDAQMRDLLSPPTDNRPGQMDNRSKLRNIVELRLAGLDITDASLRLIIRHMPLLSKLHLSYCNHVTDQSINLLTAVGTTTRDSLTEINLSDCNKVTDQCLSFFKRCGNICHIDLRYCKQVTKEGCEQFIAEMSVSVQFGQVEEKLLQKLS

[2] = biological target: Lysine-specific demethylase 5A (Homo sapiens) (UniProt P29375); test: Inhibition of KDM5A (unknown origin) at 10 uM
Chain of Lysine-specific demethylase 5A (Homo sapiens) (P29375 whole entry): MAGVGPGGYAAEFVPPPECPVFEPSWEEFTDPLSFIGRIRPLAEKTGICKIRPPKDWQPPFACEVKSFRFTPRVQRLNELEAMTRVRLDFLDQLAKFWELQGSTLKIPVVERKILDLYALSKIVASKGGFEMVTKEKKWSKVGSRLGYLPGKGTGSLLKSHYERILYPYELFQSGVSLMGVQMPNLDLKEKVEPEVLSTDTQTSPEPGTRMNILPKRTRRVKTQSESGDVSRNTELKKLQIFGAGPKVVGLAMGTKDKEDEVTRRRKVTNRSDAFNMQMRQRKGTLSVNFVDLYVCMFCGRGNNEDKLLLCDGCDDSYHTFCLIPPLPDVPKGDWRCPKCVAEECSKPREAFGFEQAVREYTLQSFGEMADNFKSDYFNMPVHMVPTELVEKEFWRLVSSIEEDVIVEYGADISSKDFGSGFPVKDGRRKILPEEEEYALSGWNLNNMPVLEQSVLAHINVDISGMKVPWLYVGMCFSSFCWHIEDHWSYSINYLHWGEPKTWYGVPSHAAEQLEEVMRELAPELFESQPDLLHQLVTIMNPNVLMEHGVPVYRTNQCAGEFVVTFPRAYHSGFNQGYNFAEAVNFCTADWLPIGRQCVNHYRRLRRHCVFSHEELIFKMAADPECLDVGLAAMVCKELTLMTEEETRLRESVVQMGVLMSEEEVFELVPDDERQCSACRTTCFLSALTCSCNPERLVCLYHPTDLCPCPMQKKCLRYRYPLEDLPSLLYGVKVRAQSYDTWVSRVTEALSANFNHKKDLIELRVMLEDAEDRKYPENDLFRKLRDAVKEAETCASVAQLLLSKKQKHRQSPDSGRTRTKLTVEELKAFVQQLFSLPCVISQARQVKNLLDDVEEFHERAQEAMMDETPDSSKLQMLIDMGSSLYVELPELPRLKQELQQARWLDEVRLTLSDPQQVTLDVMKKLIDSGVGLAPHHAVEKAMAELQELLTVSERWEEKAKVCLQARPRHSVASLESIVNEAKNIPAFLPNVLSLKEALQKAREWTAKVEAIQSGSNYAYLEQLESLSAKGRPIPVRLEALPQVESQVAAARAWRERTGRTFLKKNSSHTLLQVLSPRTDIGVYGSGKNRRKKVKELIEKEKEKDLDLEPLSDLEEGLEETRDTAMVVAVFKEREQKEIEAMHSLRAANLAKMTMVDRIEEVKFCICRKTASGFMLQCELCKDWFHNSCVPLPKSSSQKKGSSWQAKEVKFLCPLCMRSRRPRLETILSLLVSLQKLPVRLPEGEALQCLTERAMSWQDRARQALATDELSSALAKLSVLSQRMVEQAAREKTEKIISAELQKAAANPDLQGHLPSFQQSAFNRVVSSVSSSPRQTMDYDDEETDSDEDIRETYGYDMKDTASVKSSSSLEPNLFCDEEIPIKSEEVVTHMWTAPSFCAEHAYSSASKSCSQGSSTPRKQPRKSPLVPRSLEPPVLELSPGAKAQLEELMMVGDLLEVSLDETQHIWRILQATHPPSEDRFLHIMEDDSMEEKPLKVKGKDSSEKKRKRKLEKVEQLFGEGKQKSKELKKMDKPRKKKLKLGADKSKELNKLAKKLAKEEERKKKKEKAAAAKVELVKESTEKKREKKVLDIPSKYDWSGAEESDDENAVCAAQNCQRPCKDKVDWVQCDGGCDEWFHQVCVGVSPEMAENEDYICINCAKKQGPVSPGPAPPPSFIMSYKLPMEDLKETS

[3] = biological target: T2, Lysine-specific demethylase 4D (Homo sapiens, UniProt Q6B0I6); test: Inhibition of KDM4D (unknown origin) using biotinylated H3 derived peptide as substrate preincubated for 15 mins followed by substrate addition measured after 1 hr by AlphaLISA method
T2 sequence (Q6B0I6 whole entry): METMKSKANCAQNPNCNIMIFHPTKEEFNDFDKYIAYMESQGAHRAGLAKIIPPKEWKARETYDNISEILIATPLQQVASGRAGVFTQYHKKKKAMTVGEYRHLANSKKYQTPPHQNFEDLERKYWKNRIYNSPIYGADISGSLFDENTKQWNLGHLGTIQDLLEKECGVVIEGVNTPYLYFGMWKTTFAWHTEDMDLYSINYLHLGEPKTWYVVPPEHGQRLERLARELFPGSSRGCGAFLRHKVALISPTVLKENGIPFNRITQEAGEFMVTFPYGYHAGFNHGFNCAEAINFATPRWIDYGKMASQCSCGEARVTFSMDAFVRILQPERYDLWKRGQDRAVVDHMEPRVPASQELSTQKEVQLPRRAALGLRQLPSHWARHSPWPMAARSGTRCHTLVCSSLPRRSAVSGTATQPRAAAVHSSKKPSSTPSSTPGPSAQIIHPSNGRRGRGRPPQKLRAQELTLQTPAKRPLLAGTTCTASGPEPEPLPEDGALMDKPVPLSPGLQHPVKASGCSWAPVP

[4] = biological target: Lysine-specific demethylase 3B (Homo sapiens) (UniProt Q7LBC6); test: Inhibition of KDM3B (unknown origin) at 10 uM
Chain of Lysine-specific demethylase 3B (Homo sapiens) (Q7LBC6 whole entry): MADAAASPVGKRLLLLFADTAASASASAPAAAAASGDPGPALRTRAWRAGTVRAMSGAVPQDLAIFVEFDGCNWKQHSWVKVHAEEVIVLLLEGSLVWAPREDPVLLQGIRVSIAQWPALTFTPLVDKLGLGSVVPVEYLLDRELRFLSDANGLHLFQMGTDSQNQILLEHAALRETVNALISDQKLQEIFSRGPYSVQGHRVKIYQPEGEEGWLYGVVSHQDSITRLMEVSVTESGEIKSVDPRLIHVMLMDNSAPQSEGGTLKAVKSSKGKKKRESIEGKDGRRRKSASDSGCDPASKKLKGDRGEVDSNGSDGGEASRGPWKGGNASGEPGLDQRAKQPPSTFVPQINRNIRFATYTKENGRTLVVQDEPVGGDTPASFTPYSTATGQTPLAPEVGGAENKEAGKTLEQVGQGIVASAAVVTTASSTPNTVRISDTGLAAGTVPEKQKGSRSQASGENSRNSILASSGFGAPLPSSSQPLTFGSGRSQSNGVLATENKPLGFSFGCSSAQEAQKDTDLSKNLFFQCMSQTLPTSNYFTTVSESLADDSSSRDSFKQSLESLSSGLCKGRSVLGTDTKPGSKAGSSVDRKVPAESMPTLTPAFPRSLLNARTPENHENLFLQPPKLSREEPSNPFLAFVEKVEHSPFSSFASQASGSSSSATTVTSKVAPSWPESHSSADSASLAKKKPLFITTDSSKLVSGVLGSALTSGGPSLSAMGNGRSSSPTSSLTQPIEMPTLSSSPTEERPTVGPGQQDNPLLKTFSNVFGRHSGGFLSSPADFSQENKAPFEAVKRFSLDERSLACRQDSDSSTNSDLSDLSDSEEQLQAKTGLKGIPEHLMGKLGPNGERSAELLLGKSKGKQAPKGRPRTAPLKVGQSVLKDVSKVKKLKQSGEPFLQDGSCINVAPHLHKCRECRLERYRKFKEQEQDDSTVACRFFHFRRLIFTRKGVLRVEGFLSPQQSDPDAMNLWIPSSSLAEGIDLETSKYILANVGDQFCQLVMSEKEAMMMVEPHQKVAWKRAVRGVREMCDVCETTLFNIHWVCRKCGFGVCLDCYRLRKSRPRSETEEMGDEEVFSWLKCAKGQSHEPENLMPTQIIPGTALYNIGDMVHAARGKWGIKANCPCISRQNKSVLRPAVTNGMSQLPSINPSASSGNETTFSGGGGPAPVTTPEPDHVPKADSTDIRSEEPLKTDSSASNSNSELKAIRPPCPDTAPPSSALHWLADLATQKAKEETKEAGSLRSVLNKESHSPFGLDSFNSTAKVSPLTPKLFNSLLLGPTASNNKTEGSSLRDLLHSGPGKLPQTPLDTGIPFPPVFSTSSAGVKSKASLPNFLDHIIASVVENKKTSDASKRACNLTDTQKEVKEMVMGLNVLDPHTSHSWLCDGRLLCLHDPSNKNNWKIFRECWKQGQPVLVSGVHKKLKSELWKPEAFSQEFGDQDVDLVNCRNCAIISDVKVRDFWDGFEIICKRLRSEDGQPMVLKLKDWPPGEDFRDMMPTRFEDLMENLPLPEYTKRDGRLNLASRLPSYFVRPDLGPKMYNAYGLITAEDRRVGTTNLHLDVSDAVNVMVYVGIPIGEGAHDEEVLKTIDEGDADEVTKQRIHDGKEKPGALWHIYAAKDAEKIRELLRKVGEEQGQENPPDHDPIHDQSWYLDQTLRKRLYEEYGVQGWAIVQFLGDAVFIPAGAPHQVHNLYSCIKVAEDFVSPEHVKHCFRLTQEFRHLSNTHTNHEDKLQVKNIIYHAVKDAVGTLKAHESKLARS

[5] = biological target: T3, Lysine-specific demethylase 4D (Homo sapiens) (UniProt Q6B0I6); test: Inhibition of KDM4D (unknown origin) at 10 uM using biotinylated H3 derived peptide as substrate preincubated for 15 mins followed by substrate addition measured after 1 hr by AlphaLISA method
T3 sequence (whole entry): T2 sequence (Q6B0I6 whole entry)

| SMILES | inhibition [5] [%] | also measured |
| --- | --- | --- |
| Cc1nn2c(nc(O)c3cccnc32)c1C#N | 88.8 | IC50 [3]: 410 nM |
| N#Cc1cnn2c1ncc1cccnc12 | 85.1 | IC50 [3]: 4030 nM |
| N#Cc1cnn2c1nc(O)c1cccc(N)c12 | 62.3 | – |
| Cc1nc2c(C#N)cnn2c2ncccc12 | 22.9 | – |
| CCc1nn2c(nc(O)c3cccnc32)c1C#N | 78.1 | IC50 [3]: 1850 nM |
| N#Cc1c(-c2ccccc2)nn2c1nc(O)c1cccnc12 | 23.6 | – |
| N#Cc1cnn2c1nc(O)c1ncccc12 | 5.26 | – |
| N#Cc1cnn2c1nc(O)c1cccc(C(F)(F)F)c12 | 8.63 | – |
| Oc1ccccc1-c1ccn(-c2nccc(N3CCOCC3)n2)n1 | 99.7 | inhibition [1]: 84.1%; inhibition [2]: 73.6%; inhibition [4]: 90.7% |
| CS(=O)(=O)c1ccc2c(O)nc3c(C#N)cnn3c2c1 | 9.63 | – |
| N#Cc1cnn2c1nc(O)c1ccc(N)cc12 | -2.25 | – |
| N#Cc1cnn2c1nc(O)c1ccc(C(F)(F)F)cc12 | -0.35 | – |
| N#Cc1cnn2c1nc(O)c1ccccc12 | 9.03 | – |

Second part, led by results:

| inhibition [5] [%] | SMILES | also measured |
| --- | --- | --- |
| 73.3 | N#Cc1cnn2c1nc(O)c1cccc([N+](=O)[O-])c12 | inhibition [1]: -4.85%; inhibition [2]: 23.1%; IC50 [3]: 3140 nM; inhibition [4]: -2.18% |
| 68.1 | N#Cc1cnn2c1nc(O)c1ccncc12 | – |
| 21.9 | Cc1ccc2c(O)nc3c(C#N)cnn3c2n1 | – |
| 16.4 | N#Cc1cnn2c1nc(O)c1cnccc12 | – |
| 1.91 | N#Cc1cnn2c1nc(O)c1cc([N+](=O)[O-])cnc12 | – |
| 4.75 | N#Cc1cnn2c1nc(O)c1ccc([N+](=O)[O-])cc12 | – |
| 20.1 | N#Cc1cnn2c1nc(O)c1cccnc12 | – |
| 10.4 | N#Cc1cnn2c1nc(O)c1ccc(C(F)(F)F)nc12 | – |
| 58.7 | N#Cc1cnn2c1nc(O)c1ccc(Cl)nc12 | – |
